# Columns and labels:
# [1] = test system: MV4-11 cells (FLT3-ITD); assay type: cell-based, human; conditions: 100 nmol/L for 3 hours
# [2] = test system: PC3 xenograft
# [3] = test system: NCI-N87 xenograft; test: HER2 overexpressing gastric NCI-N87 xenograft model; conditions: 25 mg/kg i.v.; not statistically significant
# [4] = test system: pAkt(S473) and pS6(S240/244) in PC3 tumor tissue; conditions: mouse, in vivo
# [5] = tolerability / maximum-tolerated dose; assay type: in vivo, mice; conditions: for maximum observed body weight loss: 14 days, male Balb/C nude mice
# [6] = pharmacokinetics after a single oral dose; parameters: species or system mice; conditions: mouse, in vivo
# [7] = test system: pS6 and pAkt in COLO-205 tumor tissue; test: pharmacodynamic markers in COLO-205 tumors; assay type: in vivo, mice; conditions: 25 mg/kg, 1h after the last dose on day 17
# [8] = test system: 436 cancer cell lines; assay type: cell-based, human
smiles,measurement,setting,value
"CO[C@H]1C[C@@H]2CC[C@@H](C)[C@@](O)(O2)C(=O)C(=O)N2CCCC[C@H]2C(=O)O[C@H]([C@H](C)C[C@@H]2CC[C@@H](OCCO)[C@H](OC)C2)CC(=O)[C@H](C)/C=C(\C)[C@@H](O)[C@@H](OC)C(=O)[C@H](C)C[C@H](C)/C=C/C=C/C=C/1C [Everolimus, everolimus, reference compound]",inhibition of phosphorylation of Akt,[1],not able to inhibit
same,tumor growth inhibition (TGI),"[2]; 5 mg/kg p.o. daily, 28 days",133%
"O=c1[nH]cc(F)c(=O)[nH]1 [5-FU, 5-fluorouracil]",tumor growth inhibition,[3],32%
"Cc1nc2c(-c3cnc(N)nc3)nc(N3CCOCC3)nc2n1C(C)C [VS-5584, 5-(9-isopropyl-8-methyl-2-morpholin-4-yl-9H-purin-6-yl)-pyrimidin-2-ylamine]",pAkt(S473) blocked,[4],≥ 90%
same,pS6(S240/244) blocked,[4],≥ 90%
same,maximum observed body weight loss,"[5]; 25 mg/kg once daily, data not shown",3.1%
same,maximum observed body weight loss,"[5]; 35 mg/kg once daily, data not shown",13.9%
same,peripheral blood cell counts,"[5]; 25 and 35 mg/kg, data not shown",remained within normal levels without significant changes
same,tolerability of a single dose,[5]; single dose up to 100 mg/kg,well tolerated
same,Tmax,[6],0.9 h
same,half-life,[6],10 h
same,reduction of pAkt in tumor,[7],85%
same,reduction of pS6 in tumor,[7],95%
same,weight loss (mean),"[2]; 11 and 25 mg/kg, day 27",4.7%
CN(C)C/C=C/C(=O)Nc1cc2c(Nc3ccc(F)c(Cl)c3)ncnc2cc1O[C@H]1CCOC1 [BIBW2992],sensitivity of ERBB2-amplified cells with coincident PIK3CA mutations,[8],did not observe increased sensitivity

# Source: PMC3588144 (Molecular cancer therapeutics, 2012)
